Results reported in patent US20030181335A1, “Novel 3- (4-cyanophenyl) uracils” (priority 1995, published 2003).

Tests used:
Experiment in all cases: Greenhouse herbicidal activity, post-emergence
Format in all cases: in vivo
Conditions in all cases: application rate 0.0156 or 0.0078 kg of a.i./ha
Abutilon theophrasti = system: Abutilon theophrasti
Excerpt: (§1) The culture containers used were plastic flower pots containing loamy sand with approximately 3.0% of humus as the substrate. The seeds of the test plants were sown separately for each species.
(§2) For the post-emergence treatment, the test plants were first grown to a plant height of 3 to 15 cm, depending on the growth form, and only then treated with the active ingredients which were suspended or emulsified in water. The test plants were either sown directly and grown in the same containers, or grown separately as seedlings and transplanted to the test containers a few days prior to treatment. The application rate for the post-emergence treatment was 0.0156 or 0.0078 kg of a.i. (active ingredient) per ha.
(§3) The plants were kept at from 10-25° C. or 20-35° C., depending on the species. The test period extended to 2-4 weeks. During this time, the plants were tended and their response to individual treatments was evaluated.
(§4) Evaluation was carried out using a scale from 0 to 100. 100 means no emergence of the plants, or complete destruction of at least the aerial parts, and 0 means no damage or normal course of growth.
(§5) The plants used for the greenhouse experiments were the following species: […]

Galium aparine = system: Galium aparine
Excerpt: as §1, §2, §3, §4, §5

Ipomoea subspecies = system: Ipomoea subspecies
Excerpt: as §1, §2, §3, §4, §5

Solanum nigrum = system: Solanum nigrum
Excerpt: as §1, §2, §3, §4, §5

COc1cc(-n2c(=O)cc(C(F)(F)F)n(N)c2=O)ccc1C#N [Compound No. I.02, 1-Amino-3-[4-cyano-3-methoxyphenyl]-6-trifluoromethyl-1,2,3,4-tetrahydropyrimidine-2,4-dione]
very effective: herbicidal action against Abutilon theophrasti (velvet leaf) (Abutilon theophrasti) | herbicidal action against Galium aparine (catchweed bedstraw) (Galium aparine) | herbicidal action against Ipomoea subspecies (morningglory) (Ipomoea subspecies) | herbicidal action against Solanum nigrum (black nightshade) (Solanum nigrum)
